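Assay format: 96-well plates, 48-hour exposure. At the GI50, growth is halved.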 Activity calls are given as the source filed them. No stated cut-off is given here; in the data, active = GI50 up to about 1.1 µM and inactive = higher.
Experiments:
Assay in all cases: NCI anticancer screen, dose series, 48 h
HCC 2998 = system: HCC 2998
TK-10 = system: TK-10
EKVX = system: EKVX
SF-295 = system: SF-295
UACC-257 = system: UACC-257
SF-268 = system: SF-268
K562 = system: K562
UACC-62 = system: UACC-62
T47D = system: T47D
LOX IMVI = system: LOX IMVI
OVCAR-5 = system: OVCAR-5
HCT-15 = system: HCT-15
MOLT-4 = system: MOLT-4
DU-145 = system: DU-145
786-0 = system: 786-0
SK-MEL-5 = system: SK-MEL-5
OVCAR-4 = system: OVCAR-4
CCRF-CEM = system: CCRF-CEM
NCI-H460 = system: NCI-H460

## CC1(C)CC2(C)OC(=N)C1(C#N)C2(C#N)C#N (stereo not given)
HCC 2998
  GI50: 12.1 µM (inactive)
TK-10
  GI50: 10.8 µM (inactive)
EKVX
  GI50: 5.02 µM (inactive)
SF-295
  GI50: 16.3 µM (inactive)
UACC-257
  GI50: 7.4 µM (inactive)
SF-268
  GI50: 15.6 µM (inactive)
K562
  GI50: 6.93 µM (inactive)
UACC-62
  GI50: 12.4 µM (inactive)
T47D
  GI50: 10.7 µM (inactive)
LOX IMVI
  GI50: 1.68 µM (inactive)
OVCAR-5
  GI50: 14.3 µM (inactive)
HCT-15
  GI50: 2.36 µM
MOLT-4
  GI50: 9.53 µM (inactive)
DU-145
  GI50: 14.6 µM (inactive)
786-0
  GI50: 2.63 µM (inactive)
SK-MEL-5
  GI50: 8.83 µM (inactive)

## COP(C)(=O)C1=CCN(C(=O)OCC[Si](C)(C)C)CC1 (stereo not given)
HCC 2998
  GI50: > 100 µM (inactive)
TK-10
  GI50: > 100 µM (inactive)
EKVX
  GI50: > 100 µM (inactive)
SF-295
  GI50: > 100 µM (inactive)
UACC-257
  GI50: > 100 µM (inactive)
SF-268
  GI50: > 100 µM (inactive)
UACC-62
  GI50: > 100 µM (inactive)
T47D
  GI50: > 100 µM (inactive)
LOX IMVI
  GI50: > 100 µM (inactive)
OVCAR-5
  GI50: > 100 µM (inactive)
OVCAR-4
  GI50: > 100 µM (inactive)
CCRF-CEM
  GI50: > 100 µM (inactive)
HCT-15
  GI50: > 100 µM
DU-145
  GI50: > 100 µM (inactive)
786-0
  GI50: > 100 µM (inactive)
SK-MEL-5
  GI50: > 100 µM (inactive)
NCI-H460
  GI50: > 100 µM (inactive)

## O=C(n1[nH]c(=O)n(-c2ccc([N+](=O)[O-])cc2)c1=O)C(Cl)(Cl)Cl
HCC 2998
  GI50: > 75 µM (inactive)
TK-10
  GI50: > 75 µM (inactive)
EKVX
  GI50: > 75 µM (inactive)
SF-295
  GI50: > 75 µM (inactive)
UACC-257
  GI50: > 75 µM (inactive)
SF-268
  GI50: > 75 µM (inactive)
K562
  GI50: > 75 µM (inactive)
UACC-62
  GI50: > 75 µM (inactive)
T47D
  GI50: > 75 µM (inactive)
LOX IMVI
  GI50: > 75 µM (inactive)
OVCAR-5
  GI50: > 75 µM (inactive)
OVCAR-4
  GI50: > 75 µM (inactive)
HCT-15
  GI50: > 75 µM
MOLT-4
  GI50: > 75 µM (inactive)
DU-145
  GI50: > 75 µM (inactive)
786-0
  GI50: > 75 µM (inactive)
SK-MEL-5
  GI50: > 75 µM (inactive)
NCI-H460
  GI50: > 75 µM (inactive)

## O=C1C(Cl)=C(Cl)C(Cl)(Cl)C(Cl)C1(Cl)Cl (stereo not given)
HCC 2998
  GI50: 17.3 µM (inactive)
TK-10
  GI50: 19.5 µM (inactive)
EKVX
  GI50: 20.8 µM (inactive)
SF-295
  GI50: 21.2 µM (inactive)
UACC-257
  GI50: 18.4 µM (inactive)
SF-268
  GI50: 19.6 µM (inactive)
K562
  GI50: 24.6 µM (inactive)
UACC-62
  GI50: 16.7 µM (inactive)
T47D
  GI50: 21 µM (inactive)
LOX IMVI
  GI50: 19.4 µM (inactive)
OVCAR-5
  GI50: 23.2 µM (inactive)
CCRF-CEM
  GI50: 27.3 µM (inactive)
HCT-15
  GI50: 29.6 µM
DU-145
  GI50: 27.4 µM (inactive)
786-0
  GI50: 37.8 µM (inactive)
SK-MEL-5
  GI50: 13.7 µM (inactive)
NCI-H460
  GI50: 19.9 µM (inactive)

## CN1C(=O)C(CC(=O)O)NC1=S (stereo not given)
HCC 2998
  GI50: > 100 µM (inactive)
TK-10
  GI50: > 100 µM (inactive)
EKVX
  GI50: 56.6 µM (inactive)
SF-295
  GI50: > 100 µM (inactive)
UACC-257
  GI50: > 100 µM (inactive)
SF-268
  GI50: > 100 µM (inactive)
K562
  GI50: > 100 µM (inactive)
UACC-62
  GI50: > 100 µM (inactive)
T47D
  GI50: 51.4 µM (inactive)
LOX IMVI
  GI50: > 100 µM (inactive)
OVCAR-5
  GI50: > 100 µM (inactive)
CCRF-CEM
  GI50: > 100 µM (inactive)
HCT-15
  GI50: > 100 µM
MOLT-4
  GI50: > 100 µM (inactive)
DU-145
  GI50: > 100 µM (inactive)
786-0
  GI50: > 100 µM (inactive)
SK-MEL-5
  GI50: > 100 µM (inactive)
NCI-H460
  GI50: > 100 µM (inactive)

## C=CC[C@H]1[C@H](O[Si](C)(C)C(C)(C)C)C=CC(=O)[C@@H]1CC(=O)OCC
HCC 2998
  GI50: 12.9 µM (inactive)
TK-10
  GI50: 14.8 µM (inactive)
EKVX
  GI50: 11.9 µM (inactive)
SF-295
  GI50: 13.5 µM (inactive)
UACC-257
  GI50: 3.98 µM (inactive)
SF-268
  GI50: 14.4 µM (inactive)
K562
  GI50: 3.13 µM (inactive)
UACC-62
  GI50: 11.9 µM (inactive)
T47D
  GI50: 6.04 µM (inactive)
LOX IMVI
  GI50: 17.5 µM (inactive)
OVCAR-5
  GI50: 14.1 µM (inactive)
OVCAR-4
  GI50: 11.8 µM (inactive)
CCRF-CEM
  GI50: 12 µM (inactive)
HCT-15
  GI50: 13.5 µM
MOLT-4
  GI50: 22 µM (inactive)
DU-145
  GI50: 16.4 µM (inactive)
786-0
  GI50: 14.5 µM (inactive)
SK-MEL-5
  GI50: 11 µM (inactive)
NCI-H460
  GI50: 14 µM (inactive)

## O=C(O)C12C3CCC(CC3)C1(C(=O)O)C1CCC2C1 (stereo not given)
HCC 2998
  GI50: > 100 µM (inactive)
TK-10
  GI50: > 100 µM (inactive)
SF-295
  GI50: > 100 µM (inactive)
UACC-257
  GI50: > 100 µM (inactive)
SF-268
  GI50: > 100 µM (inactive)
K562
  GI50: > 100 µM (inactive)
UACC-62
  GI50: > 100 µM (inactive)
T47D
  GI50: > 100 µM (inactive)
LOX IMVI
  GI50: > 100 µM (inactive)
OVCAR-5
  GI50: > 100 µM (inactive)
CCRF-CEM
  GI50: > 100 µM (inactive)
HCT-15
  GI50: > 100 µM
MOLT-4
  GI50: > 100 µM (inactive)
DU-145
  GI50: > 100 µM (inactive)
786-0
  GI50: > 100 µM (inactive)
SK-MEL-5
  GI50: > 100 µM (inactive)
NCI-H460
  GI50: > 100 µM (inactive)

## Nc1ccc(OCCCc2c(-c3ccccc3)[nH]c(N)nc2=O)cc1
HCC 2998
  GI50: 22.8 µM (inactive)
EKVX
  GI50: 0.398 µM (active)
SF-295
  GI50: 34.8 µM (inactive)
UACC-257
  GI50: 80.5 µM (inactive)
SF-268
  GI50: > 100 µM (inactive)
K562
  GI50: 74.5 µM (inactive)
UACC-62
  GI50: 16.1 µM (inactive)
T47D
  GI50: 12.2 µM (inactive)
LOX IMVI
  GI50: 31 µM (inactive)
OVCAR-5
  GI50: > 100 µM (inactive)
OVCAR-4
  GI50: 31.6 µM (inactive)
CCRF-CEM
  GI50: 43 µM (inactive)
HCT-15
  GI50: > 100 µM
MOLT-4
  GI50: 34.5 µM (inactive)
DU-145
  GI50: 48.2 µM (inactive)
786-0
  GI50: 45.2 µM (inactive)
SK-MEL-5
  GI50: 41.1 µM (inactive)
NCI-H460
  GI50: 24.6 µM (inactive)

Source: ChEMBL document CHEMBL1201862, “PubChem BioAssay data set” (2004)
